{"source": "patent US5328913A", "about": "“Minoxidil analogs as inhibitors of cell proliferation and lysyl hydroxylase” (priority 1992, dated 1994)", "key": {"[1]": {"test_system": "Prolyl Hydroxylations in Human Skin Fibroblasts", "test": "Hydroxylation of proline residues in type I procollagen (Hyp/Pro)", "assay_type": "cell-based", "details": "1 mM; for Hyp/Pro: 72 hr; for activity at 1000 µM: Homo sapiens, Skin fibroblast, 72 hr (Table V), read-out: ratio of hydroxyproline to proline, % control value", "experimental": "Culture of human skin fibroblasts derived from an apparently normal adult were grown to confluent densities in Dulbecco's modified Eagle's medium supplemented with 10% (v/v) fetal calf serum. Thereafter, the medium was replaced with medium supplemented with 0.5% dialyzed fetal calf serum. […] In some experiments, minoxodil was dissolved in 95% (v/v) ethanol; […]. Cultures treated with ethanol only served as the control.\n(§1) During the last 6 hr of treatment, cultures were labeled with 50 μCi of L-[2,3-^3 H]proline (35 Ci/mmol) and 50 μCi of L[U-^14 C]lysine ([…]) in 4 ml of lysine-free medium supplemented with 100 μM ascorbic acid. At the end of the incubation period, the medium was removed and mixed with 1 mM each of EDTA, N-ethylmaleimide, and phenylmethylsulfonylfluoride, and the collagenous proteins were precipitated with 30% (NH4)2 SO4. The cell layer was scraped and extracted with 0.5 M acetic acid containing the protease inhibitors as above. The cell extract was neutralized, and the collagenous proteins were precipitated as above. The (NH4)2 SO4 precipitate from the medium and cell layer was separately dissolved in 0.1% SDS/10 mM Tris-HCl (pH 6.8), reduced with dithiothreitol, and analyzed by electrophoresis on 4% SDS-polyacrylamide gels. The bands corresponding to the proαl(I) and proα2(I) chains from the two fractions were pooled and hydrolyzed with 6 M HCl for 24 hr at 110° C. Proline, hydroxyproline, lysine, and hydroxylysine in the hydrolysate were separated by HPLC (Takimitsa et al, J. Dermatol. 16:37 (1989)), and their radioactivity was determined in a Beckman liquid scintillation counter. To isolate type I procollagen the precipitate from the medium and cell layer was separately dissolved in 25 mM Tris-HCl, pH 7.5, containing 2 M urea and 1 mM each of EDTA, N-ethylmaleimide, and phenylmethylsulfonylfluoride, then chromatographed on a DEAE-cellulose column (Freiberger et al, J. Invest. Dermatol. 75:425 (1980)). The procollagen isolated from the two fractions was pooled, hydrolyzed, and analyzed as above."}, "[2]": {"details": "in vivo; cited from earlier work"}, "[3]": {"test_system": "Collagen Synthesis in Human Skin Fibroblasts", "test": "Collagen synthesis in human skin fibroblasts", "assay_type": "cell-based", "details": "1 mM, 72 hr; mean ± SD of duplicate analysis of two cultures (Table VII)", "experimental": "(§2) Culture of human skin fibroblasts derived from an apparently normal adult were grown to confluent densities in Dulbecco's modified Eagle's medium supplemented with 10% (v/v) fetal calf serum. Thereafter, the medium was replaced with medium supplemented with 0.5% dialyzed fetal calf serum. The cultures were treated for 72 hr with 1 mM minoxidil, 3'- hydroxyminoxidil,or 4'-hydroxyminoxidil (Upjohn) dissolved in aqueous medium. In some experiments, minoxodil was dissolved in 95% (v/v) ethanol; […]. Cultures treated with ethanol only served as the control.\nDuring the last 6 hr of treatment, cultures were labeled with 20 μCi of L-[2,3-^3 H]proline in 1 ml of medium supplemented with 100 μM ascorbic acid. The amount of proline radioactivity incorporated into collagen in the medium and cells combined was measured after digestion with a bacterial collagenase, essentially as described previously (Freiberger et al, J. Invest. Dermatol. 75:425 (1980))."}, "prolyl hydroxylase": {"test_system": "prolyl hydroxylase", "test": "Prolyl hydroxylase activity in fibroblasts treated with minoxidil and its hydroxy derivatives (Example 3)", "assay_type": "cell-based, human", "details": "for prolyl hydroxylase activity (in words) / Prolyl Hydroxylase Activity: 1 mM; for prolyl hydroxylase activity (in words): 72 hr", "experimental": "Culture of human skin fibroblasts derived from an apparently normal adult were grown to confluent densities in Dulbecco's modified Eagle's medium supplemented with 10% (v/v) fetal calf serum. Thereafter, the medium was replaced with medium supplemented with 0.5% dialyzed fetal calf serum. The cultures were treated for 72 hr with 1 mM minoxidil, 3'- hydroxyminoxidil,or 4'-hydroxyminoxidil (Upjohn) dissolved in aqueous medium. In some experiments, minoxodil was dissolved in 95% (v/v) ethanol; the final concentration of minoxidil was 0.3 mM and that of ethanol was 0.3%. Cultures treated with ethanol only served as the control.\n(§3) During the last 3 hr of treatment, cultures received 100 μM ascorbic acid. The enzyme activities in extracts of treated cells were measured by tritium-release assays described previously (Murad and Pinnell, J. Biol. Chem. 262:11,973 (1987))."}, "[4]": {"test_system": "non-proliferating fibroblasts", "test": "Cytotoxicity to non-proliferating fibroblasts (cell number per dish)", "assay_type": "cell-based", "details": "5 mM, 72 hr", "excerpt": "Certain aspects of the present invention are described in greater detail in the non-limiting Examples that follow. (See also Murad et al, Arch. Biochem. Biophys. 292:234 (1992))."}, "[5]": {"test_system": "Lysyl Hydroxylations in Human Skin Fibroblasts", "test": "Hydroxylation of lysine residues in type I procollagen (Hyl/Lys)", "assay_type": "cell-based", "details": "1 mM; for Hyl/Lys: 72 hr; for activity at 1000 µM: Homo sapiens, Skin fibroblast, 72 hr (Table V), read-out: ratio of hydroxylysine to lysine, percentage of control value", "experimental": "as §2, §1"}, "lysyl hydroxylase": {"test_system": "lysyl hydroxylase", "test": "Lysyl hydroxylase activity in fibroblasts treated with minoxidil and its hydroxy derivatives (Example 3)", "assay_type": "cell-based, human", "details": "for Fibroblast Lysyl Hydroxylase Activity: 48 hr", "experimental": "Culture of human skin fibroblasts derived from an apparently normal adult were grown to confluent densities in Dulbecco's modified Eagle's medium supplemented with 10% (v/v) fetal calf serum. Thereafter, the medium was replaced with medium supplemented with 0.5% dialyzed fetal calf serum. […] In some experiments, minoxodil was dissolved in 95% (v/v) ethanol; the final concentration of minoxidil was 0.3 mM and that of ethanol was 0.3%. Cultures treated with ethanol only served as the control.\nas §3"}, "human skin fibroblasts": {"test_system": "human skin fibroblasts", "test": "Fibroblast proliferation", "assay_type": "cell-based", "details": "relative to minoxidil", "experimental": "Cultures were seeded at a density of 100,000 cells per 35 mm-dish and allowed to attach and proliferate in the presence of 20% calf serum. Drug-treated cultures received 1 mM minoxidil or its hydroxy derivative on day 1 after seeding."}, "[6]": {"details": "type I procollagen chains isolated by gel electrophoresis, mean ± range of two experiments (description table)"}, "[7]": {"details": "1 mM, 72 hr (description table)"}}, "note": "“Also recorded” adds a separate entry of the source.", "data": [{"smiles": "Nc1cc(N2CCC(O)CC2)nc(N)[n+]1[O-]", "note": "[4'-Hydroxyminoxidil]", "values": [{"measurement": "Hyp/Pro", "setting": "[1]; gel electrophoresis (Table V)", "result": "1.12 ± 0.07"}, {"measurement": "Hyp/Pro", "setting": "[1]; [6]", "result": "1.12 ± 0.07"}, {"measurement": "activity at 1000 µM", "setting": "[1]", "result": 122, "unit": "%"}, {"measurement": "antihypertensive / hypotensive activity (in words)", "setting": "[2]", "result": "Neither metabolite exhibits the marked hypotensive activity associated with minoxidil; also recorded: inactive as antihypertensive agents"}, {"measurement": "% Collagen Synthesized", "setting": "[3]", "result": "8.2 ± 0.6", "unit": "%"}, {"measurement": "effect on prolyl hydroxylase (in words)", "setting": "prolyl hydroxylase", "result": "without affecting prolyl hydroxylase"}, {"measurement": "prolyl hydroxylase activity (in words)", "setting": "prolyl hydroxylase", "result": "remained unchanged"}, {"measurement": "Prolyl Hydroxylase Activity", "setting": "prolyl hydroxylase; 72 hr (Table VI)", "result": 33500, "unit": "cpm ^3 H2 O/mg protein"}, {"measurement": "Prolyl Hydroxylase Activity", "setting": "prolyl hydroxylase; 72 hr (description table)", "result": 33500, "unit": "cpm^3 H2 O/mg protein"}, {"measurement": "10^-6 × No. of Cells/Dish", "setting": "[4]", "result": "1.42 10^-6 × No. of Cells/Dish"}, {"measurement": "Hyl/Lys", "setting": "[5]; gel electrophoresis (Table V)", "result": "0.09 ± 0.01"}, {"measurement": "Hyl/Lys", "setting": "[5]; [6]", "result": "0.09 ± 0.01"}, {"measurement": "activity at 1000 µM", "setting": "[5]", "result": 41, "unit": "%"}, {"measurement": "suppression of lysyl hydroxylase (in words)", "setting": "lysyl hydroxylase", "result": "inhibitory potential comparable to that of minoxidil; also recorded: as active as minoxidil in suppressing fibroblast proliferation and lysyl hydroxylase activity"}, {"measurement": "Fibroblast Lysyl Hydroxylase Activity", "setting": "lysyl hydroxylase; 1 mM", "result": 415, "unit": "cpm^3 H2 O/mg protein"}, {"measurement": "Lysyl Hydroxylase Activity", "setting": "lysyl hydroxylase; 1 mM, 72 hr (Table VI)", "result": 239, "unit": "cpm ^3 H2 O/mg protein"}, {"measurement": "Lysyl Hydroxylase Activity", "setting": "lysyl hydroxylase; [7]", "result": 293, "unit": "cpm^3 H2 O/mg protein"}, {"measurement": "Fibroblast Lysyl Hydroxylase Activity", "setting": "lysyl hydroxylase; 5 mM", "result": 494, "unit": "cpm^3 H2 O/mg protein"}, {"measurement": "suppression of fibroblast proliferation (in words)", "setting": "human skin fibroblasts", "result": "as active as minoxidil in suppressing fibroblast proliferation"}]}, {"smiles": "Nc1cc(N2CCCC(O)C2)nc(N)[n+]1[O-]", "note": "(stereo not drawn) [3'-Hydroxyminoxidil]", "values": [{"measurement": "Hyp/Pro", "setting": "[1]; gel electrophoresis (Table V)", "result": "0.95 ± 0.02"}, {"measurement": "Hyp/Pro", "setting": "[1]; [6]", "result": "0.95 ± 0.02"}, {"measurement": "activity at 1000 µM", "setting": "[1]", "result": 103, "unit": "%"}, {"measurement": "antihypertensive / hypotensive activity (in words)", "setting": "[2]", "result": "Neither metabolite exhibits the marked hypotensive activity associated with minoxidil; also recorded: inactive as antihypertensive agents"}, {"measurement": "% Collagen Synthesized", "setting": "[3]", "result": "9.0 ± 0.9", "unit": "%"}, {"measurement": "effect on prolyl hydroxylase (in words)", "setting": "prolyl hydroxylase", "result": "without affecting prolyl hydroxylase"}, {"measurement": "prolyl hydroxylase activity (in words)", "setting": "prolyl hydroxylase", "result": "remained unchanged"}, {"measurement": "Prolyl Hydroxylase Activity", "setting": "prolyl hydroxylase; 72 hr (Table VI)", "result": 30512, "unit": "cpm ^3 H2 O/mg protein"}, {"measurement": "Prolyl Hydroxylase Activity", "setting": "prolyl hydroxylase; 72 hr (description table)", "result": 30512, "unit": "cpm^3 H2 O/mg protein"}, {"measurement": "10^-6 × No. of Cells/Dish", "setting": "[4]", "result": "1.39 10^-6 × No. of Cells/Dish"}, {"measurement": "Hyl/Lys", "setting": "[5]; gel electrophoresis (Table V)", "result": "0.07 ± 0.01"}, {"measurement": "Hyl/Lys", "setting": "[5]; [6]", "result": "0.07 ± 0.01"}, {"measurement": "activity at 1000 µM", "setting": "[5]", "result": 32, "unit": "%"}, {"measurement": "suppression of lysyl hydroxylase (in words)", "setting": "lysyl hydroxylase", "result": "inhibitory potential comparable to that of minoxidil; also recorded: as active as minoxidil in suppressing fibroblast proliferation and lysyl hydroxylase activity"}, {"measurement": "Fibroblast Lysyl Hydroxylase Activity", "setting": "lysyl hydroxylase; 1 mM", "result": 401, "unit": "cpm^3 H2 O/mg protein"}, {"measurement": "Lysyl hydroxylase activity, % of control level", "setting": "lysyl hydroxylase; 1 mM, 72 hr", "result": 22, "unit": "%"}, {"measurement": "Lysyl Hydroxylase Activity", "setting": "lysyl hydroxylase; 1 mM, 72 hr (Table VI)", "result": 263, "unit": "cpm ^3 H2 O/mg protein"}, {"measurement": "Lysyl Hydroxylase Activity", "setting": "lysyl hydroxylase; [7]", "result": 263, "unit": "cpm^3 H2 O/mg protein"}, {"measurement": "Fibroblast Lysyl Hydroxylase Activity", "setting": "lysyl hydroxylase; 5 mM", "result": 383, "unit": "cpm^3 H2 O/mg protein"}, {"measurement": "suppression of fibroblast proliferation (in words)", "setting": "human skin fibroblasts", "result": "as active as minoxidil in suppressing fibroblast proliferation"}]}]}
